According to ChEMBL document CHEMBL1909046, “DrugMatrix in vitro pharmacology data”:

Columns and labels:
[1] = biological target: Platelet-activating factor receptor (Homo sapiens, UniProt P25105); test: biochemical; format: tissue-based; details: platelet; note: in other assays of this panel Not Active means under 50% inhibition at 10 µM
Cannabinoid receptor 1 = Cannabinoid receptor 1 (Homo sapiens, UniProt P21554); format: cell membranes, Membrane; details: chem-1; note: in other assays of this panel Not Active means under 50% inhibition at 10 µM
Cannabinoid receptor 1, sequence (P21554 whole entry): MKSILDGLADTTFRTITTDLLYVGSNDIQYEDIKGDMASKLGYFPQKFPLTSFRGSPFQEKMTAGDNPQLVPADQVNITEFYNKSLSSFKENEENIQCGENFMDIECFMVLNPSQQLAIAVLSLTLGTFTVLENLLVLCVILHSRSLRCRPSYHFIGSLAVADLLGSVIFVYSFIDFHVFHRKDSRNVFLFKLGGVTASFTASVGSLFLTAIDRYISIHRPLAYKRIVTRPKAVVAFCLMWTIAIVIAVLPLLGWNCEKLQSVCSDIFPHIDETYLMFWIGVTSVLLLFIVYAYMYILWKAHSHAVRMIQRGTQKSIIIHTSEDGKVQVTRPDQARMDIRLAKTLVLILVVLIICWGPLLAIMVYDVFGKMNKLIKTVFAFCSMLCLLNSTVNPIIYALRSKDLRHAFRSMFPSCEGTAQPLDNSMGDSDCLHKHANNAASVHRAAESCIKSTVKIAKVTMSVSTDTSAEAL

[2] = biological target: 5-hydroxytryptamine receptor 6 (Homo sapiens, UniProt P50406); format: cell membranes, HeLa, Membrane; details: hela; note: in other assays of this panel Not Active means under 50% inhibition at 10 µM
5-hydroxytryptamine receptor 6, sequence (P50406 whole entry): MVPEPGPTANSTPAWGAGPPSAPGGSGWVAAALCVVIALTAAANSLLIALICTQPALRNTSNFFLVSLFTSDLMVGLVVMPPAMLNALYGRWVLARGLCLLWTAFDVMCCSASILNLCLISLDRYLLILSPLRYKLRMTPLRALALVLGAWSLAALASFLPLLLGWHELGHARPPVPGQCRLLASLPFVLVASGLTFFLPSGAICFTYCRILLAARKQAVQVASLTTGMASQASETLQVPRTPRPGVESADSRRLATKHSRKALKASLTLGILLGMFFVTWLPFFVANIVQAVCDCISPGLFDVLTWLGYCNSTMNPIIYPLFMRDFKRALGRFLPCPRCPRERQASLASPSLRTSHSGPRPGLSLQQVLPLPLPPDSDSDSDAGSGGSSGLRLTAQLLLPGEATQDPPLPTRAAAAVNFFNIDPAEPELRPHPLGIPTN

Mu-type opioid receptor = Mu-type opioid receptor (Homo sapiens, UniProt P35372); test: DRUGMATRIX: Opiate mu (OP3, MOP) radioligand binding (ligand: [3H] Diprenorphine); format: cell membranes, CHO-K1, Membrane; details: cho-k1; Not Active = under 50% inhibition at 10 µM
Mu-type opioid receptor, sequence (P35372 whole entry): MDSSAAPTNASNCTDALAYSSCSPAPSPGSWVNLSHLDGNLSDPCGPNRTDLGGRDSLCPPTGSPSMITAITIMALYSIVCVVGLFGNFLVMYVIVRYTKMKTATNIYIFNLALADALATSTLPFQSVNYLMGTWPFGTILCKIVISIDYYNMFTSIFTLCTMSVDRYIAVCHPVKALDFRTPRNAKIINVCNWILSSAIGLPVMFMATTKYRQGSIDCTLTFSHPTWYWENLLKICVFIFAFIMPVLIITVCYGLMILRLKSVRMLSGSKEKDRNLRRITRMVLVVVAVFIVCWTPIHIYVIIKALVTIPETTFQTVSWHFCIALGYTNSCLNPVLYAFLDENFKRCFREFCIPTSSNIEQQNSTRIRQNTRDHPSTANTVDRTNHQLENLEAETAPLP

Melanocortin receptor 5 = Melanocortin receptor 5 (Homo sapiens, UniProt P33032); format: cell membranes, HEK293, Membrane; details: hek293; note: in other assays of this panel Not Active means under 50% inhibition at 10 µM
Melanocortin receptor 5, sequence (P33032 whole entry): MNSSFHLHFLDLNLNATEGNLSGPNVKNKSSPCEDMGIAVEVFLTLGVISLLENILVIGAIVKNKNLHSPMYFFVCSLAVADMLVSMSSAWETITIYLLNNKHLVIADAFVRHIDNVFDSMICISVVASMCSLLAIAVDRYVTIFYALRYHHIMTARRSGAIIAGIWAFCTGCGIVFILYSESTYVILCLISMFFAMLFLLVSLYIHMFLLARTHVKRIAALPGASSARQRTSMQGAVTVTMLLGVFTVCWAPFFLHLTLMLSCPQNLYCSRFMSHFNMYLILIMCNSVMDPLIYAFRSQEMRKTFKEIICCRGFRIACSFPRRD

[3] = DRUGMATRIX: Interleukin IL-1 radioligand binding (ligand: [125I] interleukin 1beta); format: cell membranes, Membrane; details: nih3t3; Not Active = under 50% inhibition at 10 µM

Platelet-activating factor receptor, sequence (P25105 whole entry): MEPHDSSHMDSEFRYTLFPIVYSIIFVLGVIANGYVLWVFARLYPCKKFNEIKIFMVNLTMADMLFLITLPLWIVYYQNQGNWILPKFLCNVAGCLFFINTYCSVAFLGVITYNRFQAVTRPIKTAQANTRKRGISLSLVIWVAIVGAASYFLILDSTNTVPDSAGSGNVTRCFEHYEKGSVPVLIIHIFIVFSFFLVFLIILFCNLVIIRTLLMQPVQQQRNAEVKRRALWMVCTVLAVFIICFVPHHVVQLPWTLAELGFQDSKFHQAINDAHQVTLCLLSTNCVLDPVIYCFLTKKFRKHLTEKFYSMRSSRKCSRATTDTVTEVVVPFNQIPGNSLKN

C#CCN(C)[C@H](C)Cc1ccccc1 [SELEGILINE]
Not Active: IC50 [1] | IC50 (Cannabinoid receptor 1) | IC50 [2] | IC50 (Mu-type opioid receptor) | IC50 (Melanocortin receptor 5) | IC50 [3] | Ki [3]

CO[C@H]1C[C@@H]2CC[C@@H](C)[C@@](O)(O2)C(=O)C(=O)N2CCCC[C@H]2C(=O)O[C@H]([C@H](C)C[C@@H]2CC[C@@H](O)[C@H](OC)C2)CC(=O)[C@H](C)/C=C(\C)[C@@H](O)[C@@H](OC)C(=O)[C@H](C)C[C@H](C)/C=C/C=C/C=C/1C [SIROLIMUS]
Not Active: IC50 [1] | IC50 (Cannabinoid receptor 1) | IC50 [2] | IC50 (Mu-type opioid receptor) | IC50 (Melanocortin receptor 5) | IC50 [3] | Ki [3]

CN[C@@H]1[C@H](O)[C@H](NC)[C@H]2O[C@@]3(O)C(=O)C[C@@H](C)O[C@H]3O[C@@H]2[C@H]1O [SPECTINOMYCIN]
Not Active: IC50 [1] | IC50 (Cannabinoid receptor 1) | IC50 [2] | IC50 (Mu-type opioid receptor) | IC50 (Melanocortin receptor 5) | IC50 [3] | Ki [3]

Nc1ccc(S(=O)(=O)Nc2ncccn2)cc1 [SULFADIAZINE]
Not Active: IC50 [1] | IC50 (Cannabinoid receptor 1) | IC50 [2] | IC50 (Mu-type opioid receptor) | IC50 (Melanocortin receptor 5) | IC50 [3] | Ki [3]

COc1ncnc(NS(=O)(=O)c2ccc(N)cc2)c1OC [SULFADOXINE]
Not Active: IC50 [1] | IC50 (Cannabinoid receptor 1) | IC50 [2] | IC50 (Mu-type opioid receptor) | IC50 (Melanocortin receptor 5) | IC50 [3] | Ki [3]

Nc1ccc(S(=O)(=O)Nc2nccs2)cc1 [SULFATHIAZOLE]
Not Active: IC50 [1] | IC50 (Cannabinoid receptor 1) | IC50 [2] | IC50 (Mu-type opioid receptor) | IC50 (Melanocortin receptor 5) | IC50 [3] | Ki [3]

C[C@]12CC[C@H]3[C@@H](CCC4=CC(=O)CC[C@@]43C)[C@@H]1CC[C@@H]2O [TESTOSTERONE]
Not Active: IC50 [1] | IC50 (Cannabinoid receptor 1) | IC50 [2] | IC50 (Mu-type opioid receptor) | IC50 (Melanocortin receptor 5) | IC50 [3] | Ki [3]

CC(C)(C)NC[C@H](O)COc1nsnc1N1CCOCC1 [TIMOLOL]
Not Active: IC50 [1] | IC50 (Cannabinoid receptor 1) | IC50 [2] | IC50 (Mu-type opioid receptor) | IC50 (Melanocortin receptor 5) | IC50 [3] | Ki [3]

CCS(=O)(=O)CCn1c([N+](=O)[O-])cnc1C [TINIDAZOLE]
Not Active: IC50 [1] | IC50 (Cannabinoid receptor 1) | IC50 [2] | IC50 (Mu-type opioid receptor) | IC50 (Melanocortin receptor 5) | IC50 [3] | Ki [3]

C[C@@H]1C[C@H]2[C@@H]3CCC4=CC(=O)C=C[C@]4(C)C3=CC[C@]2(C)[C@H]1C(=O)CN1CCN(c2cc(N3CCCC3)nc(N3CCCC3)n2)CC1 [TIRILAZAD]
Not Active: IC50 [1] | IC50 (Cannabinoid receptor 1) | IC50 [2] | IC50 (Mu-type opioid receptor) | IC50 (Melanocortin receptor 5) | IC50 [3] | Ki [3]

NC[C@H]1O[C@H](O[C@H]2[C@H](O)[C@@H](O[C@H]3O[C@H](CO)[C@@H](O)[C@H](N)[C@H]3O)[C@H](N)C[C@@H]2N)[C@H](N)C[C@@H]1O [TOBRAMYCIN]
Not Active: IC50 [1] | IC50 (Cannabinoid receptor 1) | IC50 [2] | IC50 (Mu-type opioid receptor) | IC50 (Melanocortin receptor 5) | IC50 [3] | Ki [3]

COc1ccc(CN2CCNCC2)c(OC)c1OC [TRIMETAZIDINE]
Not Active: IC50 [1] | IC50 (Cannabinoid receptor 1) | IC50 [2] | IC50 (Mu-type opioid receptor) | IC50 (Melanocortin receptor 5) | IC50 [3] | Ki [3]

CC(=O)O[C@H]1C[C@@H]2CC[C@@H]3[C@H](CC[C@@]4(C)[C@H]3C[C@H]([N+]3(C)CCCCC3)[C@@H]4OC(C)=O)[C@@]2(C)C[C@@H]1N1CCCCC1.[Br-] [VECURONIUM BROMIDE]
Not Active: IC50 [1] | IC50 (Cannabinoid receptor 1) | IC50 [2] | IC50 (Mu-type opioid receptor) | IC50 (Melanocortin receptor 5) | IC50 [3] | Ki [3]

COc1cc(C(=O)NS(=O)(=O)c2ccccc2C)ccc1Cc1cn(C)c2ccc(NC(=O)OC3CCCC3)cc12 [ZAFIRLUKAST]
Not Active: IC50 [1] | IC50 (Cannabinoid receptor 1) | IC50 [2] | IC50 (Mu-type opioid receptor) | IC50 (Melanocortin receptor 5) | IC50 [3] | Ki [3]

Cc1cn([C@H]2C[C@H](N=[N+]=[N-])[C@@H](CO)O2)c(=O)[nH]c1=O [ZIDOVUDINE]
Not Active: IC50 [1] | IC50 (Cannabinoid receptor 1) | IC50 [2] | IC50 (Mu-type opioid receptor) | IC50 (Melanocortin receptor 5) | IC50 [3] | Ki [3]
